According to US20210179578A1, “OX1 ANTAGONISTS” (Heptares Therapeutics Limited, priority 2017, published 2021):

Tests used:
[1] = molecular target: T1, human OX1 receptor (Homo sapiens, UniProt O43613); assay: IPone accumulation assay, CHO cells expressing OX1 (antagonism of orexin A); format: cell-based; conditions: IPone accumulation, CHO human OX1, orexin A EC80 challenge (~20 nM); read-out: fpKb average OX1 (converted)
T1 sequence (O43613 1-425): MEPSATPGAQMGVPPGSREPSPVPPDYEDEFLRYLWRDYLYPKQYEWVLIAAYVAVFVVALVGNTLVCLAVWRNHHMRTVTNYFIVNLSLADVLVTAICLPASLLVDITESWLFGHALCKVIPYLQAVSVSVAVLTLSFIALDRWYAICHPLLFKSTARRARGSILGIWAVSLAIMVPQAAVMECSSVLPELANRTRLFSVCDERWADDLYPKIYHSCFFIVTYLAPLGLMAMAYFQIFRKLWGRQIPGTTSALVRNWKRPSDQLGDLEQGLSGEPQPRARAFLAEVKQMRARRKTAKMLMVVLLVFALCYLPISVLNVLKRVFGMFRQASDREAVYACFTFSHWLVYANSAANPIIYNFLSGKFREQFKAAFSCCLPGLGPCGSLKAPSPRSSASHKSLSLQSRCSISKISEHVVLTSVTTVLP
Experimental: Generation of CHO stable cell lines expressing the human OX1R and OX2R. Stable cell lines for the human OX1R and OX2R receptors were generated through the transfection of CHO cells using the transfection reagent Genejuice (Novagen number 70967) and cDNA coding for either the human OX1R or OX2R. Cells were cultured in Sigma Nutrient Mixture F-12 Ham media (catalog number N6658) supplemented with 10% heat-inactivated FBS. Forty-eight hours after transfection, cells were harvested and placed under geneticin selection by culturing in Sigma Nutrient Mixture F-12 Ham media supplemented with 10% heat-inactivated FBS and geneticin (ThermoFisher Catalog number: 10131035). Selection of the final stable clone for each receptor was made on the basis of receptor expression, assay signal to noise and robustness though increasing passage. Selected clones for the human OX1R and OX2R were then frozen down into liquid nitrogen using Cell Freezing Medium-DMSO (Sigma-Aldrich catalog number: C6164). IPone accumulation assay. A CHO cell line stably expressing either human OX1 or OX2 receptor was used with the IPone HTRF assay kit (CisBio: Part #62[…]) to measure receptor activation. The assay was optimised to measure the ability (potency; fpKb) of antagonists to reduce agonist (orexin A)-induced inositol phosphate turnover. Briefly, cells were plated onto half area 96-well white walled plates at a density of 12,500 cells/well. Sixteen hours post-plating cell growth media was replaced with antagonist concentration-response curve diluted in stimulation buffer (supplied with the kit). Cells were incubated in a humidified incubator (37° C.) for 30 min before an EC80 challenge concentration ( 20 nM (OX1) and 40 nM (OX2)) of orexin A (Tocris catalogue number 1455). After 30 min stimulation in a humidified incubator (37° C.) the assay was terminated by the addition of detection mixture as per manufacturer's instructions. The concentration of compound which reduced orexin-A stimulated turnover of inositol phosphates by 50% (IC50) was calculated by fitting to a four parameter sigmoidal dose response curve. The IC50 values were converted to fpKB values using the orexin A pEC50 value estimated on each plate as well as the challenge concentration interpolated from the orexin A control curve.

[2] = molecular target: T2, human OX2 receptor (Homo sapiens, UniProt O43614); assay: IPone accumulation assay, CHO cells expressing OX2 (antagonism of orexin A); format: cell-based; conditions: CHO human OX2, orexin A EC80 challenge (40 nM), read-out: fpKb average OX2 (converted)
T2 sequence (O43614 1-444): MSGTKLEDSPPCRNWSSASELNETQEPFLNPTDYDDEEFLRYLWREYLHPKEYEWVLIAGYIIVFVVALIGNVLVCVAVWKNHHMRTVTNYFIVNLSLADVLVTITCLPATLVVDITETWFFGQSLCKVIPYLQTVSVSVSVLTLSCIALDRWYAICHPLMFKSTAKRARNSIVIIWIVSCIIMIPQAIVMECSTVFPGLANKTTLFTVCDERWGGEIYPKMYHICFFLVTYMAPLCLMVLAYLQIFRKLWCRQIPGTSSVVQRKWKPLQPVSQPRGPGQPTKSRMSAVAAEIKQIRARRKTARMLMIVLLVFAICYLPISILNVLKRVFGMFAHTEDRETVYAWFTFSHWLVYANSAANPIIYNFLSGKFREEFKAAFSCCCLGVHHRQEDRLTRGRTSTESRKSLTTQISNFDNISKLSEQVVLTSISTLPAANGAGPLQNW
Experimental: Generation of CHO stable cell lines expressing the human OX1R and OX2R. Stable cell lines for the human OX1R and OX2R receptors were generated through the transfection of CHO cells using the transfection reagent Genejuice (Novagen number 70967) and cDNA coding for either the human OX1R or OX2R. Cells were cultured in Sigma Nutrient Mixture F-12 Ham media (catalog number N6658) supplemented with 10% heat-inactivated FBS. Forty-eight hours after transfection, cells were harvested and placed under geneticin selection by culturing in Sigma Nutrient Mixture F-12 Ham media supplemented with 10% heat-inactivated FBS and geneticin (ThermoFisher Catalog number: 10131035). Selection of the final stable clone for each receptor was made on the basis of receptor expression, assay signal to noise and robustness though increasing passage. Selected clones for the human OX1R and OX2R were then frozen down into liquid nitrogen using Cell Freezing Medium-DMSO (Sigma-Aldrich catalog number: C6164).
IPone accumulation assay. A CHO cell line stably expressing either human OX1 or OX2 receptor was used with the IPone HTRF assay kit (CisBio: Part #62IPAPEJ) to measure receptor activation. The assay was optimised to measure the ability (potency; fpKb) of antagonists to reduce agonist (orexin A)-induced inositol phosphate turnover. Briefly, cells were plated onto half area 96-well white walled plates at a density of 12,500 cells/well. Sixteen hours post-plating cell growth media was replaced with antagonist concentration-response curve diluted in stimulation buffer (supplied with the kit). Cells were incubated in a humidified incubator (37° C.) for 30 min before an EC80 challenge concentration (˜20 nM (OX1) and 40 nM (OX2)) of orexin A (Tocris catalogue number 1455). After 30 min stimulation in a humidified incubator (37° C.) the assay was terminated by the addition of detection mixture as per manufacturer's instructions. The concentration of compound which reduced orexin-A stimulated turnover of inositol phosphates by 50% (IC50) was calculated by fitting to a four parameter sigmoidal dose response curve. The IC50 values were converted to fpKB values using the orexin A pEC50 value estimated on each plate as well as the challenge concentration interpolated from the orexin A control curve.

| Compound | Kb [1] [nM] | Kb [2] [nM] |
| --- | --- | --- |
| [2H]C([2H])([2H])Oc1cc(F)c(CN2C(=O)N(c3cnc(OC)c(C(C)(F)F)c3)CCc3c(F)cccc32)c(F)c1 [Example 6, 3-[5-(1,1-difluoroethyl)-6-methoxypyridin-3-yl]-1-{2,6-difluoro-4-[(^2H3)methyloxy]benzyl}-6-fluoro-1,3,4,5-tetrahydro-2H-1,3-benzodiazepin-2-one] | 10 | 398 |
| Cc1ncc(N2CCc3c(F)cccc3N(Cc3c(F)cc(Br)cc3F)C2=O)cc1OC(F)F [Example 37, 1-(4-bromo-2,6-difluorobenzyl)-3-[5-(difluoromethoxy)-6-methylpyridin-3-yl]-6-fluoro-1,3,4,5-tetrahydro-2H-1,3-benzodiazepin-2-one] | 20 | > 3980 |
| COCc1cc(F)c(CN2C(=O)N(c3cnc(C)c(C(C)(F)F)c3)CCc3c(F)cccc32)c(F)c1 [Example 33, 3-[5-(1,1-difluoroethyl)-6-methylpyridin-3-yl]-1-[2,6-difluoro-4-(methoxymethyl)benzyl]-6-fluoro-1,3,4,5-tetrahydro-2H-1,3-benzodiazepin-2-one] | 15.8 | 1000 |
| Cc1cc(C)c(S(C)(=O)=O)cc1N1CCc2ccccc2N(Cc2c(F)cc(OC(C)C)cc2F)C1=O [Example 30, 1-[2,6-difluoro-4-(propan-2-yloxy)benzyl]-3-[2,4-dimethyl-5-(methylsulfonyl)phenyl]-1,3,4,5-tetrahydro-2H-1,3-benzodiazepin-2-one] | 39.8 | 794 |
| COc1cc(F)c(CN2C(=O)N(c3cnc(OC)c(S(C)(=O)=O)c3)CCc3c(F)cccc32)c(F)c1 [Example 16, 1-(2,6-difluoro-4-methoxybenzyl)-6-fluoro-3-[6-methoxy-5-(methylsulfonyl)pyridin-3-yl]-1,3,4,5-tetrahydro-2H-1,3-benzodiazepin-2-one] | 15.8 | > 3980 |
| COc1cc(F)c(CN2C(=O)N(c3cc(S(C)(=O)=O)c(OC)nc3OC)CCc3c(F)cccc32)c(F)c1 [Example 25, 1-(2,6-difluoro-4-methoxybenzyl)-3-[2,6-dimethoxy-5-(methylsulfonyl)pyridin-3-yl]-6-fluoro-1,3,4,5-tetrahydro-2H-1,3-benzodiazepin-2-one] | 10 | > 3980 |
| COCc1cc(F)c(CN2C(=O)N(c3cnc(OC)c(C(C)(F)F)c3)CCc3c(F)cccc32)c(F)c1 [Example 7, 3-[5-(1,1-difluoroethyl)-6-methoxypyridin-3-yl]-1-[2,6-difluoro-4-(methoxymethyl)benzyl]-6-fluoro-1,3,4,5-tetrahydro-2H-1,3-benzodiazepin-2-one] | 7.94 | > 3980 |
| COc1ncc(N2CCc3c(F)cccc3N(Cc3c(C)cc(Br)cc3F)C2=O)cc1S(C)(=O)=O [Example 17, 1-(4-bromo-2-fluoro-6-methylbenzyl)-6-fluoro-3-[6-methoxy-5-(methylsulfonyl)pyridin-3-yl]-1,3,4,5-tetrahydro-2H-1,3-benzodiazepin-2-one] | 10 | > 2510 |
| COc1ncc(C2CCc3c(F)cccc3N(Cc3c(F)cc(Cl)cc3F)C2=O)cc1S(C)(=O)=O (single isomer, unassigned) [Example 22, 1-(4-chloro-2,6-difluorobenzyl)-6-fluoro-3-[6-methoxy-5-(methylsulfonyl)pyridin-3-yl]-1,3,4,5-tetrahydro-2H-1-benzazepin-2-one] | 10 | > 1000 |
| COc1ncc(N2CCc3c(F)cccc3N(Cc3c(F)cc(Cl)cc3F)C2=O)cc1C(C)(F)F [Example 9, 1-(4-chloro-2,6-difluorobenzyl)-3-[5-(1,1-difluoroethyl)-6-methoxypyridin-3-yl]-6-fluoro-1,3,4,5-tetrahydro-2H-1,3-benzodiazepin-2-one] | 25.1 | > 3160 |
| COc1ncc(C2CCc3c(F)cccc3N(Cc3c(F)cc(Br)cc3F)C2=O)cc1S(C)(=O)=O (racemic) [Example 19, 1-(4-bromo-2,6-difluorobenzyl)-6-fluoro-3-[6-methoxy-5-(methylsulfonyl)pyridin-3-yl]-1,3,4,5-tetrahydro-2H-1-benzazepin-2-one] | 31.6 | > 3160 |
| Cc1ccc(N2CCc3c(F)cccc3N(Cc3c(F)cc(Br)cc3F)C2=O)cc1C(C)(F)F [Example 1, 1-(4-bromo-2,6-difluorobenzyl)-3-[3-(1,1-difluoroethyl)-4-methylphenyl]-6-fluoro-1,3,4,5-tetrahydro-2H-1,3-benzodiazepin-2-one] | 158 | > 3160 |
| COc1cc(F)c(CN2C(=O)N(c3cnc(OC)c(S(C)(=O)=O)c3)CCc3c(F)cccc32)c(F)c1F [Example 15, 6-fluoro-3-[6-methoxy-5-(methylsulfonyl)pyridin-3-yl]-1-(2,3,6-trifluoro-4-methoxybenzyl)-1,3,4,5-tetrahydro-2H-1,3-benzodiazepin-2-one] | 126 | > 3160 |
| COc1ncc(N2CCc3c(F)cccc3N(Cc3ccc(Br)cc3F)C2=O)cc1C(C)(F)F [Example 10, 1-(4-bromo-2-fluorobenzyl)-3-[5-(1,1-difluoroethyl)-6-methoxypyridin-3-yl]-6-fluoro-1,3,4,5-tetrahydro-2H-1,3-benzodiazepin-2-one] | 25.1 | > 2510 |
| [2H]C([2H])([2H])Oc1ncc(N2CCc3c(F)cccc3N(Cc3c(F)cc(Br)cc3F)C2=O)cc1C(C)(F)F [Example 2, 1-(4-bromo-2,6-difluorobenzyl)-3-{5-(1,1-difluoroethyl)-6-[(^2H3)methyloxy]pyridin-3-yl}-6-fluoro-1,3,4,5-tetrahydro-2H-1,3-benzodiazepin-2-one] | 20 | > 3980 |
| COc1ncc(N2CCc3c(F)cccc3N(Cc3c(C)cc(F)cc3F)C2=O)cc1S(C)(=O)=O [Example 18, 1-(2,4-difluoro-6-methylbenzyl)-6-fluoro-3-[6-methoxy-5-(methylsulfonyl)pyridin-3-yl]-1,3,4,5-tetrahydro-2H-1,3-benzodiazepin-2-one] | 10 | > 3160 |
